The values below come from patent US8268838B2, “Substituted purinyl-pyrazole derivatives and their use as potassium channel modulators” (Neurosearch A/S, priority 2008, dated 2012).

For this assay, the target named is T1, hSK3 channels (Homo sapiens, UniProt Q9UGI6).
T1 construct: expressed in transfected cells; host or cells: HEK293
In words: Whole-cell patch-clamp recording of ionic current through SK channels (subtype 3) in HEK293 cells expressing hSK3. Format: cell-based. How it is done:
The ionic current through small-conductance Ca^2+-activated K^+ channels (SK channels, subtype 3) is recorded using the whole-cell configuration of the patch-clamp technique in a classic patch-clamp set-up using HEK293 tissue culture cells expressing hSK3 channels as described in e.g. WO 2006/100212.
The SC100 value determined is defined as the Stimulating Concentration required for increasing the baseline current by 100%. The SC100 value determined for Compound 6.5 of the invention was 0.3 μM, which is an indication of its SK3 activating properties.
On the technique in general: Patch clamp records ionic current or voltage across a cell membrane.

Take `Cc1cc(C)n(-c2nc(N(C(=O)OCC(C)C)c3ccc(Cl)cc3)c3ncn(C)c3n2)n1` [Compound 6.5, (4-Chloro-Phenyl)-[2-(3,5-Dimethyl-Pyrazol-1-yl)-9-Methyl-9H-Purin-6-yl]-Carbamic Acid Isobutyl Ester]: the “SC100 (Stimulating Concentration required for increasing the baseline current by 100%)” value amounted to 0.3 µM.
